According to US8921368B2, “Pyrrolopyridazine JAK3 inhibitors and their use for the treatment of inflammatory and autoimmune diseases” (Bristol-Myers Squibb Company, priority 2011, dated 2014):

Assays:
[1] = target: JAK3 (Homo sapiens (Human), UniProt P52333); test: JAK3 Kinase Assay (Caliper / Filter protocols); type: biochemical; conditions: JAK3 kinase inhibition; ATP 8 μM; read-out: LLE_JAK3_FB (IC50)
Procedure: JAK3 Kinase Assay Protocol (Caliper)
The assay reactions were performed in U-bottom 384-well plates. […] The reaction was initiated by the combination of GST-JAK3 enzyme with substrates and test compounds. The reactions were incubated at room temperature for 3 hours and terminated by adding 60 μl of 35 mM EDTA to each sample. […] Compounds were dissolved at 10 mM in dimethylsulfoxide (DMSO) and evaluated at eleven concentrations. IC50 values were derived by non-linear regression analysis.
JAK3 Kinase Assay Protocol (Filter)
Kinase reactions consisted of 5 ng of JAK3 enzyme, 30 uM CSKtide substrate, 0.2 μCi ^33P γ-ATP, 8 μM ATP in 30 μl kinase buffer (50 mM Hepes, pH 8.0, 10 mM MgCl2, 1 mM EGTA, 2 mM DTT). Reactions were incubated for 30 minutes at room temperature and stopped by the addition of cold trichloroacetic acid (TCA) to a final concentration of 15%. TCA precipitates were collected onto 384 well phosphocellulose filters (Millipore) using a Platemate to transfer the reaction mixture, washed on an EMBLA plate washer and the filters were quantitated using a TopCount 384-well liquid scintillation counter. […] Compounds were dissolved at 10 mM in dimethylsulfoxide (DMSO) and evaluated at six concentrations, each in triplicate. The final concentration of DMSO in the assay equaled 2%. IC50 values were derived by non-linear regression analysis.

[2] = target: JAK1 (Homo sapiens (Human), UniProt P23458); test: JAK1 Kinase Assay Protocol; type: biochemical; conditions: GST-JAK1; ATP 100 μM; Caliper LabChip; read-out: LLE_JAK1 (IC50)
Chain of JAK1 (P23458 whole entry): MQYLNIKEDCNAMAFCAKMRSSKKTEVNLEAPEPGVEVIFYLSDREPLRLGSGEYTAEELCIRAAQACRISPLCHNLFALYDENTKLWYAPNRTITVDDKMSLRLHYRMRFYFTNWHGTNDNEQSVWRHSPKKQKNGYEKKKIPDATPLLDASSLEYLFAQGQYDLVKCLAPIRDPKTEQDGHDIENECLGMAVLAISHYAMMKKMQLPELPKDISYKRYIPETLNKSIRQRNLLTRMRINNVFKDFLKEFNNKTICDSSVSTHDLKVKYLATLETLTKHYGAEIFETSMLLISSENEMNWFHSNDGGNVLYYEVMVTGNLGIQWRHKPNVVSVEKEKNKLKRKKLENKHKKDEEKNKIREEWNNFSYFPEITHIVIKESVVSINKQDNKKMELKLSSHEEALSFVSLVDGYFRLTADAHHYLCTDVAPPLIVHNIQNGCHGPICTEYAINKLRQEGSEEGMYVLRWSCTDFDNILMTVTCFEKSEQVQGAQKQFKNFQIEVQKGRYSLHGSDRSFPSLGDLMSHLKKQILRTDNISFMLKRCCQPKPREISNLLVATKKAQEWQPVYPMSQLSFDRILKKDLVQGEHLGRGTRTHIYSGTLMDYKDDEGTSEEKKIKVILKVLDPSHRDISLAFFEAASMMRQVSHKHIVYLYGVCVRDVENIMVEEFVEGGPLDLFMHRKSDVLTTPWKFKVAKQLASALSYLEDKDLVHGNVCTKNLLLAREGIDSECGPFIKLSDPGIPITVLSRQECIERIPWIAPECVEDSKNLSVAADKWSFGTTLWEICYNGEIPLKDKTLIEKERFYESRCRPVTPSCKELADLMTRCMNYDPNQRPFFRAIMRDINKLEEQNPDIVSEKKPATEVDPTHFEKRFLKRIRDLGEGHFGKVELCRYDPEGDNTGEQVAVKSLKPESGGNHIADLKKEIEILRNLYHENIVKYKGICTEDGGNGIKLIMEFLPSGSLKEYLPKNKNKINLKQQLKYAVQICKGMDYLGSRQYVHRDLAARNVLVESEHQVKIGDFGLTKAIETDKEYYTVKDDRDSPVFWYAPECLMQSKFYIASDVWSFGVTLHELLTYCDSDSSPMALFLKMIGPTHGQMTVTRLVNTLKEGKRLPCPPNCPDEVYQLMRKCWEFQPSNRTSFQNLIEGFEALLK
Procedure: JAK1 Kinase Assay Protocol
The assay reactions were performed in U-bottom 384-well plates. The final assay volume was 30 μl prepared from 15 μl additions of enzyme and substrates (fluoresceinated peptide and ATP) and test compounds in assay buffer (20 mM HEPES pH 7.4, 10 mM MgCl2, 25 mM beta-glycerol phosphate, 0.015% Brij35 and 4 mM DTT). The reaction was initiated by the combination of GST-JAK1 enzyme with substrates and test compounds. The reactions were incubated at room temperature for 3 hours and terminated by adding 60 μl of 35 mM EDTA to each sample. […] The final concentration of reagents in the assays was: ATP, 100 μM; fluoresceinated peptide, 1.5 μM; GST-JAK1, 12.5 nM; and DMSO, 1.6%. […] Compounds were dissolved at 10 mM in dimethylsulfoxide (DMSO) and evaluated at eleven concentrations. IC50 values were derived by non-linear regression analysis.

Chain of JAK3 (P52333 whole entry): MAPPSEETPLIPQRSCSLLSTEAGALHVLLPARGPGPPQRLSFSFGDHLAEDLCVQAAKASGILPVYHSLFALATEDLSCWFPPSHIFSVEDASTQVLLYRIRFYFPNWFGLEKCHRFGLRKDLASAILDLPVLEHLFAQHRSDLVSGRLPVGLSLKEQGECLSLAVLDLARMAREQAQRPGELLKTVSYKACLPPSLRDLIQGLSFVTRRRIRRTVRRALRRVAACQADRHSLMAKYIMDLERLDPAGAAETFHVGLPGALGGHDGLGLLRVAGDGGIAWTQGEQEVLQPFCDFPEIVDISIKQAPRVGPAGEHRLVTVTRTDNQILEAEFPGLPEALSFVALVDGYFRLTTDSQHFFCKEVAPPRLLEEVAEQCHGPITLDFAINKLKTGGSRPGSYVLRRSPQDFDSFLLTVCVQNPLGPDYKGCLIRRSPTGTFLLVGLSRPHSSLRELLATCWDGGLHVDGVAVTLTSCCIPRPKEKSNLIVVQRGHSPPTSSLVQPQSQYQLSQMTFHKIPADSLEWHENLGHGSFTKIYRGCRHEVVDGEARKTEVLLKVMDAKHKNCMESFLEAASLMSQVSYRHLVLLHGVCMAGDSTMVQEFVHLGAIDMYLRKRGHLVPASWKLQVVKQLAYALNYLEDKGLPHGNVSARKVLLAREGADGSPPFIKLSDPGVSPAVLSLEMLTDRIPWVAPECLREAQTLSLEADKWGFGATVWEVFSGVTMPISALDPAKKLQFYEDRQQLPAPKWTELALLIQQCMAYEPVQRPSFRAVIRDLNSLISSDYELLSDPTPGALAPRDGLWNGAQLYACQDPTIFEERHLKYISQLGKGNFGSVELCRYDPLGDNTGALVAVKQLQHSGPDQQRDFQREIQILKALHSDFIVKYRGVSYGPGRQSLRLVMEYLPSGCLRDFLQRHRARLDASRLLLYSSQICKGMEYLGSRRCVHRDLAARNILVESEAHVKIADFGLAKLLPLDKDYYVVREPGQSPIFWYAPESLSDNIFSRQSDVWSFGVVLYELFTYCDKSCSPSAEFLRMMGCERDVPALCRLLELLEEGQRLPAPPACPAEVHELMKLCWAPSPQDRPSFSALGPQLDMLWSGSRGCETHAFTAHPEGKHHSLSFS

Compound	IC50 [1] [nM]	IC50 [2] [nM]
CC1(C)[C@H](Nc2c(C(N)=O)cnn3cc(-c4cncc(C(=O)O)c4)cc23)CC[C@]1(C)N [Example 276, 5-(4-(((1R,3S)-3-amino-2,2,3-trimethylcyclopentyl)amino)-3-carbamoylpyrrolo[1,2-b]pyridazin-6-yl)nicotinic acid]	15	35.2
C[C@]1(O)CC[C@@H](Nc2c(C(N)=O)cnn3cc(-c4cncnc4N)cc23)CC1 [Example 316, 6-(4-amino-5-pyrimidinyl)-4-((cis-4-hydroxy-4-methylcyclohexyl)amino)pyrrolo[1,2-b]pyridazine-3-carboxamide]	11	37.3
CCS(=O)(=O)Nc1cc2c(N[C@@H]3CC[C@@](C)(O)C3(C)C)c(C(N)=O)cnn2c1 (racemic) [Example 25]	8.1	83.9
CC1(C)[C@H](Nc2c(C(N)=O)cnn3cc(-c4ccc(CO)cc4)cc23)CC[C@]1(C)N [Example 271, 4-(((1R,3S)-3-amino-2,2,3-trimethylcyclopentyl)amino)-6-(4-(hydroxymethyl)phenyl) pyrrolo[1,2-b]pyridazine-3-carboxamide]	0.3	0.7
CC1(C)[C@H](Nc2c(C(N)=O)cnn3cc(NS(C)(=O)=O)cc23)CC[C@@]1(C)O (racemic) [Example 3]	6	45.8
Cn1nccc1-c1cc2c(N[C@@H]3C[C@@H](O)[C@@H](O)C3(C)C)c(C(N)=O)cnn2c1 (racemic) [Example 142]	5.6	10.9
C[C@]1(O)CCCC[C@@H]1Nc1c(C(N)=O)cnn2cc(-c3ccccc3)cc12 (racemic) [Example 314, (+/−)-4-(((1S,2S)-2-hydroxy-2-methylcyclohexyl)amino)-6-phenylpyrrolo[1,2-b]-pyridazine-3-carboxamide]	5.1	17.4
C[C@]1(F)CCC[C@H]1Nc1c(C(N)=O)cnn2cc(-c3cccc(C(N)=O)c3)cc12 (racemic) [Example 94]	0.5	1.4
CC1(C)[C@H](Nc2c(C(N)=O)cnn3cc(-c4ccccc4C(N)=O)cc23)CC[C@]1(C)N [Example 255, 4-(((1R,3S)-3-amino-2,2,3-trimethylcyclopentyl)amino)-6-(2-carbamoylphenyl)pyrrolo [1,2-b]pyridazine-3-carboxamide]	6	2.7
Cn1nccc1-c1cc2c(N[C@@H]3CC[C@](C)(O)C3(C)C)c(C(N)=O)cnn2c1 (racemic) [Example 148]	25.2	46.4
CC(=O)Nc1ccccc1-c1cc2c(N[C@@H]3CC[C@](C)(N)C3(C)C)c(C(N)=O)cnn2c1 [Example 257, 6-(2-acetamidophenyl)-4-(((1R,3S)-3-amino-2,2,3-trimethylcyclopentyl)amino)pyrrolo[1,2-b]pyridazine-3-carboxamide]	36.9	30
CC1(C)[C@H](Nc2c(C(N)=O)cnn3cc(-c4ccccc4)cc23)CC[C@]1(C)NS(C)(=O)=O [Example 129]	1	2.6
COc1ccc(-c2cc3c(N[C@@H]4CC[C@](C)(C(N)=O)C4(C)C)c(C(N)=O)cnn3c2)cn1 [Example 338, 4-((1R,3S)-3-carbamoyl-2,2,3-trimethylcyclopentylamino)-6-(6-methoxypyridin-3-yl)pyrrolo[1,2-b]pyridazine-3-carboxamide]	0.3	1.2
CC1(C)[C@H](Nc2c(C(N)=O)cnn3cc(-c4ccccc4)cc23)CC[C@]1(C)C(N)=O [Example 337, 4-((1R,3S)-3-carbamoyl-2,2,3-trimethylcyclopentylamino)-6-phenylpyrrolo[1,2-b]pyridazine-3-carboxamide]	0.4	1.4
C[C@]1(O)CC[C@@H](Nc2c(C(N)=O)cnn3cc(-c4cncnc4)cc23)CC1 [Example 168, 4-((cis-4-hydroxy-4-methylcyclohexyl)amino)-6-(5-pyrimidinyl)pyrrolo [1,2-b]pyridazine-3-carboxamide]	17.1	105
CC1(C)[C@@H](Nc2c(C(N)=O)cnn3cc(-c4ccc(C#N)cc4)cc23)CC[C@@]1(C)N [Example 112]	9.4	12.7
CC1(C)[C@H](Nc2c(C(N)=O)cnn3cc(N4CCCC4=O)cc23)CC[C@]1(C)N [Example 328]	1.7	20.2
CC(C)c1ccccc1-c1cc2c(N[C@@H]3CCC[C@]3(C)F)c(C(N)=O)cnn2c1 (racemic) [Example 60]	136	253
NC(=O)c1cnn2cc(-c3ccc4scnc4c3)cc2c1NC12CC3CC(O)(CC(O)(C3)C1)C2 [Example 299, 6-(1,3-benzothiazol-5-yl)-4-((3,5-dihydroxyadamantan-1-yl)amino)pyrrolo [1,2-b]pyridazine-3-carboxamide]	7.3	4.3
CC1(C)CCC[C@H]1Nc1c(C(N)=O)cnn2cc(-c3ccccc3)cc12 [Example 304, 4-(((1R)-2,2-dimethylcyclopentyl)amino)-6-phenylpyrrolo[1,2-b] pyridazine-3-carboxamide]	0.5	2.9
CC1(C#N)CCCC1Nc1c(C(N)=O)cnn2cc(-c3ccccc3)cc12 (centres unmarked) [Example 123]	0.2	1
CC1(C)[C@H](Nc2c(C(N)=O)cnn3cc(N4CCC4=O)cc23)CC[C@]1(C)N [Example 332]	8.8	75.7
